In publication PMC10218303, “Novel Polymyxin-Inspired Peptidomimetics Targeting the SARS-CoV-2 Spike:hACE2 Interface” (International Journal of Molecular Sciences, 2023):
Read-outs that look alike come from different tables or passages of the source.

Conditions: amide bond, 23-membered ring
[1] = the molecule shown is the open-chain precursor

CC(C)C[C@@H]1NC(=O)[C@@H](Cc2ccccc2)NC(=O)[C@H](Cc2ccc(OC(C)(C)C)cc2)NC(=O)[C@@H](NC(=O)[C@H](CCNC(=O)OC(C)(C)C)NC(=O)OCC2c3ccccc3-c3ccccc32)CCNC(=O)[C@H]([C@@H](C)OC(C)(C)C)NC(=O)[C@H](CCNC(=O)OC(C)(C)C)NC(=O)[C@H](Cc2cn(C(=O)OC(C)(C)C)c3ccccc23)NC1=O showed a ring closure, isolated yield (from Fmoc-Dab(Boc)-Dab-Tyr(tBu)-dPhe-Leu-Trp(Boc)-Dab(Boc)-Thr(tBu)-OH?, HATU/HOAt/2,4,6-collidine, DCM/DMF, 0.71 mM) of 87%.

In the case of CC(C)C[C@@H]1NC(=O)[C@@H](Cc2ccccc2)NC(=O)[C@H](Cc2ccc(OC(C)(C)C)cc2)NC(=O)[C@@H](NC(=O)[C@H](CCOC(c2ccccc2)(c2ccccc2)c2ccccc2)NC(=O)OCC2c3ccccc3-c3ccccc32)CCNC(=O)[C@H]([C@@H](C)OC(C)(C)C)NC(=O)[C@H](CCNC(=O)OC(C)(C)C)NC(=O)[C@H](Cc2cn(C(=O)OC(C)(C)C)c3ccccc23)NC1=O, the ring closure, isolated yield (from Fmoc-Hse(Trt)-Dab-Tyr(tBu)-dPhe-Leu-Trp(Boc)-Dab(Boc)-Thr(tBu)-OH?, HATU/HOAt/2,4,6-collidine, DCM/DMF, 0.7 mM) is reported as 70%.

With CC(C)C[C@@H]1NC(=O)[C@@H](Cc2ccccc2)NC(=O)[C@H](Cc2ccc(OC(C)(C)C)cc2)NC(=O)[C@@H](NC(=O)[C@H](CCOC(c2ccccc2)(c2ccccc2)c2ccccc2)NC(=O)OCC2c3ccccc3-c3ccccc32)CCNC(=O)[C@H]([C@@H](C)OC(C)(C)C)NC(=O)[C@H](CCOC(c2ccccc2)(c2ccccc2)c2ccccc2)NC(=O)[C@H](Cc2cn(C(=O)OC(C)(C)C)c3ccccc23)NC1=O the ring closure, isolated yield (from Fmoc-Hse(Trt)-Dab-Tyr(tBu)-dPhe-Leu-Trp(Boc)-Hse(Trt)-Thr(tBu)-OH?, HATU/HOAt/2,4,6-collidine, DCM/DMF, 0.7 mM) was 63%.

In the case of CC(C)C[C@@H]1NC(=O)[C@@H](Cc2ccccc2)NC(=O)[C@H](Cc2cn(C(=O)OC(C)(C)C)c3ccccc23)NC(=O)[C@@H](NC(=O)[C@H](CCNC(=O)OC(C)(C)C)NC(=O)OCC2c3ccccc3-c3ccccc32)CCNC(=O)[C@H]([C@@H](C)OC(C)(C)C)NC(=O)[C@H](CCNC(=O)OC(C)(C)C)NC(=O)[C@H](Cc2cn(C(=O)OC(C)(C)C)c3ccccc23)NC1=O, the ring closure, isolated yield (from Fmoc-Dab(Boc)-Dab-Trp(Boc)-dPhe-Leu-Trp(Boc)-Dab(Boc)-Thr(tBu)-OH?, HATU/HOAt/2,4,6-collidine, DCM/DMF, 0.7 mM) is reported as 70%.

Compound CC(C)C[C@H](NC(=O)OCC1c2ccccc2-c2ccccc21)C(=O)N[C@H]1CCNC(=O)[C@H]([C@@H](C)OC(C)(C)C)NC(=O)[C@H](CCNC(=O)OC(C)(C)C)NC(=O)[C@H](CCNC(=O)OC(C)(C)C)NC(=O)[C@H](CC(C)C)NC(=O)[C@@H](Cc2ccccc2)NC(=O)[C@H](Cc2cn(C(=O)OC(C)(C)C)c3ccccc23)NC1=O has a ring closure, isolated yield (from Fmoc-Leu-Dab-Trp(Boc)-dPhe-Leu-Dab(Boc)-Dab(Boc)-Thr(tBu)-OH?, HATU/HOAt/2,4,6-collidine, DCM/DMF, 0.7 mM) of 78%.

For CC[C@H](C)[C@@H]1NC(=O)[C@@H](NC(=O)[C@H](CCNC(=O)OC(C)(C)C)NC(=O)[C@@H](NC(=O)[C@H](CC(C)C)NC(C)=O)[C@@H](C)OC(C)(C)C)CCNC(=O)[C@H](CN=[N+]=[N-])NC(=O)[C@H](CCNC(=O)OC(C)(C)C)NC(=O)[C@H](CCNC(=O)OC(C)(C)C)NC(=O)[C@H](Cc2ccc(OC(C)(C)C)cc2)NC(=O)[C@@H](Cc2ccccc2)NC1=O, the ring closure, isolated yield (from Ac-Leu-Thr(tBu)-Dab(Boc)-Dab(H-azidoAla)-Ile-dPhe-Tyr(tBu)-Dab(Boc)-Dab(Boc)-OH, HATU/HOAt/2,4,6-collidine, DCM/DMF 14:1, 0.7 mM) was 74%.

With “Ac-Glu(tBu)-Thr(tBu)-Dab(Boc)-Dab(H-Ala(N3))-Tyr(tBu)-dPhe-Leu-Dab(Boc)-Dab(Boc)-OH?” the ring closure, isolated yield [1] was 65%.

“Ac-Glu(tBu)-Thr(tBu)-Dab(Boc)-Dab(H-Ala(N3))-Tyr(tBu)-dPhe-Tyr(tBu)-Dab(Boc)-Dab(Boc)-OH?” gave a ring closure, isolated yield [1] of 48%.

With “Ac-Leu-Thr(tBu)-Dab(Boc)-Dab(H-Ala(N3))-Ile-dPhe-Tyr(tBu)-Dab(Boc)-Dab(Boc)-OH?” the ring closure, isolated yield [1] was 74%.

In the case of “Ac-Leu-Thr(tBu)-Dab(Boc)-Dab(H-Ala(N3))-Ile-dPhe-Tyr(tBu)-Hse(Trt)-Hse(Trt)-OH?”, the ring closure, isolated yield [1] is reported as 90%.
